Source: publication PMC6166228 (ACS Omega, 2018)

How the values were obtained:
human AT1 receptor = target: T1, human AT1 receptor (Homo sapiens, UniProt P30556); assay type: binding
T1 sequence (P30556 1-359): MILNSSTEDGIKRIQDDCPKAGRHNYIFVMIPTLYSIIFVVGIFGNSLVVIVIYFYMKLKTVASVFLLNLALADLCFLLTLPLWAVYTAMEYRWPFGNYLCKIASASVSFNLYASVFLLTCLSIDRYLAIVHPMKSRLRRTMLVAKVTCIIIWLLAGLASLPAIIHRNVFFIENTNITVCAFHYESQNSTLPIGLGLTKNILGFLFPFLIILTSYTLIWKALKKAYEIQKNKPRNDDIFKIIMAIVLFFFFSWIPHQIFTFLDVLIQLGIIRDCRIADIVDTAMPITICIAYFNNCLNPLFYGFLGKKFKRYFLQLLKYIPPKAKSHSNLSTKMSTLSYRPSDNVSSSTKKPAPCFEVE

[1] = no species and reference not given; cited from earlier work

Row | Ki (human AT1 receptor) | SMILES | average half-life [1]
1 | 14.6 nM | CC(C)[C@@H](C(=O)O)N(Cc1ccc(-c2ccccc2-c2nnn[nH]2)cc1)C(=O)CCCCF [FV45, (S)-2-(N-((2′-(1H-Tetrazol-5-yl)-[1,1′-biphenyl]-4-yl)methyl)-5-fluoropentanamido)-3-methylbutanoic Acid] | –
2 | – | CCCCC(=O)N(Cc1ccc(-c2ccccc2-c2nnn[nH]2)cc1)[C@H](C(=O)O)C(C)C [valsartan] | around 6 h
